Results: patent publication US4496591A, “Insecticidal bis-carbamate sulfides” (priority 1981, dated 1985)

Experiments:
Type in all cases: in vivo
[1] = tested on: Marigold; assay: Phytotoxicity, marigold; parameters: key: 0: the compounds had no visible effects on that plant species; conditions: scale 0 to 10, eight pounds per acre, approximately two weeks
Protocol: (§1) Several species of the novel compounds were tested for their phytotoxic effects. Two flats of each species of plants to be tested were planted 8-14 days before testing and grown at greenhouse conditions. One flat was sprayed with the chemical to be tested at the rate of eight pounds per acre while the other control flat was sprayed with solvent only. The results of such testing were recorded approximately two weeks after treatment and are reproduced in Table III below.
(§2) Numerical ratings from "0" to "10" are used to designate the degree of activity.

[2] = tested on: Cucumber; assay: Phytotoxicity, cucumber; parameters: key: 0: the compounds had no visible effects on that plant species; conditions: scale 0 to 10, eight pounds per acre, approximately two weeks
Protocol: as §1, §2

[3] = tested on: Sorghum; assay: Phytotoxicity, sorghum; parameters: key: 0: the compounds had no visible effects on that plant species; conditions: scale 0 to 10, eight pounds per acre, approximately two weeks
Protocol: as §1, §2

[4] = tested on: Snapbean; assay: Phytotoxicity, snapbean; parameters: key: 0: the compounds had no visible effects on that plant species; conditions: scale 0 to 10, eight pounds per acre, approximately two weeks
Protocol: as §1, §2

[5] = tested on: flax; assay: Phytotoxicity, flax; parameters: key: 0: the compounds had no visible effects on that plant species; conditions: scale 0 to 10, eight pounds per acre, approximately two weeks
Protocol: as §1, §2

[6] = tested on: Mexican bean beetle (Epilachna varivestis, Muls.) larvae; assay: Mexican bean beetle leaf spray test; parameters: key: A: excellent control; B: partial control; C: no control at 500 ppm; conditions: 500 parts per million, fourth instar larvae, three days
Protocol: (§3) Suspensions of the test compounds were prepared by dissolving one gram of compound in 50 milliliters of acetone in which had been dissolved 0.1 gram (10 percent of the weight of compound) of an alkylphenoxy polyethoxyethanol surfactant, as an emulsifying or dispersing agent. The resulting solution was mixed into 150 milliliters of water to give roughly 200 milliliters of a suspension containing the compound in finely divided form. The thus-prepared stock suspension contained 0.5 percent by weight of compound. The concentrations in parts per million by weight employed in the tests described hereinbelow were obtained by appropriate dilutions of the stock suspension with water. The test procedures were as follows:
Fourth instar larvae of the Mexican bean beetle (Epilachna varivestis, Muls.), reared on Tendergreen bean plants at a temperature of 80±5° F. and 50±5° F. percent relative humdity, were the test insects.
The test compounds were formulated by diluting the stock suspension with water to give a suspension containing 500 parts of test compound per million parts of final formulation. Tendergreen bean plants of standard height and age were placed on a revolving turntable and sprayed with 100-110 milliliters of test compound formulation by use of a DeVilbiss spray gun set at 40 psig air pressure. This application, which lasted 25 seconds, was sufficient to wet the plants to run-off. As a control, 100-110 milliliters of a water-acetone-emulsifier solution containing no test compound was also sprayed on infested plants. When dry, the paired leaves were separated and each was placed in a 9 centimeter Petri dish lined with moistened filter paper. Five randomly selected larvae were introduced into each dish, and the dishes were closed. The closed dishes were labeled and held at a temperature of 80±5° F., for three days. Although the larvae could easily consume the leaf within 24 to 48 hours, no more food was added. Larvae which were unable to move the length of the body, even upon stimulation, were considered dead.
(§4) In these tests the pesticidal activity of the compounds at the indicated dosage rate against aphid, Southern Armyworm, Bean Beetle and housefly was rated as follows: […]

[7] = tested on: house flies (Musca domestica, L.); assay: Fly bait test; parameters: key: A: excellent control; B: partial control; C: no control at 500 ppm; conditions: 500 parts per million, sugar bait, twenty-four hours
Protocol: as §3
Four to six day old adult house flies (Musca domestica, L.), reared according to the specifications of the Chemical Specialties Manufacturing Association (Blue Book, McNair-Dorland Co., N.Y. 1954; pages 243-244, 261) under controlled conditions of 80±5° F. and 50±5 percent relative humidity, were the test insects. The flies were immobilized by anesthetizing them with carbon dioxide. Twenty-five immobilized individuals, males and females, were transferred to a cage consisting of a standard food strainer about five inches in diameter which was inverted over a wrapping-paper-covered surface. The test compounds were formulated by diluting the stock suspension with a 10 percent (by weight) sugar solution to give a suspension containing 500 parts of test compound per million parts of final formulation, by weight. Ten milliliters of the test formulation were added to a souffle cup containing a one-inch square of an absorbent cotton pad. This bait cup was introduced and centered on the blotting paper under the food strainer prior to admitting the anesthetized flies. The caged flies were allowed to feed on the bait for twenty-four hours, at a temperature of 80±5° F. and at a relative humidity of 50±5 percent.
as §4

[8] = tested on: egg of the Southern armyworm (Spodoptera eridania (Cram.)); assay: Southern armyworm ovicide test; parameters: key: A: excellent control; B: partial control; C: no control at 500 ppm; conditions: 500 parts per million, egg dip, four days
Protocol: as §3
The test organism was the egg of the Southern armyworm (Spodoptera eridania (Cram.)) as obtained from adults reared on Tendergreen bean plants at a temperature of 80±5° F. and a relative humidity of 50±5 percent. The eggs were laid on freezer paper (Marlon 717, Copco paper) and then cut into small sections containing one or two egg masses.
The test compounds were formulated by diluting the stock suspension with water to give a suspension containing 500 parts of test compound per million parts of final formulation. The egg masses were then dipped until they were thoroughly wet (5-10 seconds). They were then placed on a paper towel face up and were allowed to dry for 15-30 minutes. The dry eggs were placed in a 15×60 mm petri dish containing a cotton dental wick saturated with a 5 percent sodium chloride solution to maintain a high level of humidity. The closed dishes were labeled and held at a temperature of 80±5° F. for four days. Larvae that emerged from the egg, even if dead at the time of observation, were recorded as hatched.
as §4

[9] = tested on: root-knot nematode, Meloidogyne incognita var. acrita; assay: Nematocide test; parameters: key: 1: severe galling, equal to untreated plants; 2: moderate galling; 3: light galling; 4: very light galling; 5: no galling, perfect control; conditions: 3.33 m.g. per jar, cucumber, approximately 3 weeks
Protocol: The test organism used was the infective migratory larvae of the root-knot nematode, Meloidogyne incognita var. acrita, reared in the greenhouse on roots of cucumber plants. Infected plants were removed from the culture, and the roots were chopped very finely. A small amount of this inoculum was added to a pint jar containing approximately 180 cc. of soil. The jars were capped and incubated for one week at room temperature. During this period eggs of the nematode were hatched, and the larval forms migrated into the soil.
Ten ml. of the test formulation were added to each of the two jars for each dosage tested. Following the addition of chemical, the jars were capped, and the contents thoroughly mixed on a ball mill for […].
The test compounds were formulated by a standard procedure of solution in acetone addition of an emulsifier, and dilution with water. Primary screening tests were conducted at 3.33 m.g. of the test compound per jar.
The jars were left capped at room temperature for a period of 48 hours, and the contents then transferred to 3 inch pots. Subsequently, the pots were seeded to cucumber as an indicator crop and placed in the greenhouse where they were cared for in the normal fashion for approximately 3 weeks.
The cucumber plants were then taken from the pots, the soil removed from the roots, and the amount of galling visually rated.
In the test for activity against nematodes activity was rated as follows: […]

[10] = tested on: southern armyworm (Spodoptera eridania, (Cram.)) larvae; assay: Southern armyworm leaf spray bait test; parameters: key: A: excellent control; B: partial control; C: no control at 500 ppm; conditions: 500 parts per million, three days
Protocol: as §3
Larvae of the southern armyworm (Spodoptera eridania, (Cram.)), reared on Tendergreen bean plants at a temperature of 80±5° F. and a reative humidity of 50±5 percent, constituted the test insects.
The test compounds were formulated by diluting the stock suspension with water to give a suspension containing 500 parts of test compound per million parts of final formulation. Potted Tendergreen bean plants of standard height and age were placed on a revolving turntable and sprayed with 100-110 milliliters of test compound formulation by use of a DeVilbiss spray gun set at 40 psig air pressure. This application, which lasted 25 seconds, was sufficient to wet the plants to run-off. As a control, 100-110 milliliters of a water-acetone-emulsifier solution containing no test compound were also sprayed on infested plants. When dry, the paired leaves were separated and each one was placed in a 9 centimeter Petri dish lines with moistened filter paper. Five randomly selected larvae were introduced into each dish and the dishes were closed. The closed dishes were labeled and held at 80°-85° F. for three days. Although the larvae could easily consume the whole leaf within twenty-four hours, no more food was added. Larvae which were unable to move the length of the body, even upon stimulation by prodding, were considered dead.
as §4

[11] = tested on: bean aphid (Aphis fabae Scop.); assay: Bean aphid foliage spray test; parameters: key: A: excellent control; B: partial control; C: no control at 500 ppm; conditions: 500 parts per million, 24 hour
Protocol: as §3
Adults and nymphal stages of the bean aphid (Aphis fabae Scop.) reared on potted dwarf nasturtium plants at 68°-70° F. and 50±5 percent relative humidity, constituted the test insects. For testing purposes, the number of aphids per pot were standardized to 100-150 by trimming plants containing excess aphids.
The test compounds were formulated by diluting the stock suspension with water to give a suspension containing 500 parts of test compound per million parts of final formulation.
The potted plants (one pot per compound tested) infested with 100-150 aphids, were placed on a revolving turntable and sprayed with 100-110 milliliters of test compound formulation by use of a DeVilbiss spray gun set at 40 psig. air pressure. This application, which lasted 25 seconds, was sufficient to wet the plants to run-off. As a control, 100-110 milliliters of a water-acetone-emulsifier solution containing no test compound was also sprayed on infested plants. After spraying, the pots were placed on their sides on a sheet of white standard mimeograph paper which had been previously ruled to facilitate counting. Temperature and humidity in the test room during the 24 hour holding period were 68°-70° F. and 50±5 percent, respectively. Aphids which fell onto the paper and were unable to remain standing after being uprighted were considered dead. Aphids remaining on the plants were observed closely for movement and those which were unable to move the length of the body upon stimulation by prodding were considered dead.
as §4

For `CSC(C)=NOC(=O)N(C)SN(C)C(=O)Oc1ccccc1C=O` [drawing 25], the “Phytotoxicity rating, Marigold” value [1] was 0, the “Phytotoxicity rating, Cucumber” value [2] was 0 and the “Phytotoxicity rating, Sorghum” value [3] was 0. The “Phytotoxicity rating, Snapbean” value [4] was 0 and the “Phytotoxicity rating, flax” value [5] was 0.
For `CSC(C)=NOC(=O)N(C)SN(C)C(=O)Oc1cc(C)c(C)cc1C(C)=O` [Compound 9], the “Mexican Bean Beetle, pesticidal activity rating” value (shortened to “Mexican Bean Beetle”) [6] was “A”, the “Housefly, pesticidal activity rating” value [7] was “A” and the “Southern Armyworm (egg), pesticidal activity rating” value (shortened to “Southern Armyworm (egg)”) [8] was “A”. For the same compound, the “Root-Knot Nematode, galling rating” value [9] was 1, the “Southern Armyworm, pesticidal activity rating” value [10] was “A” and the “Aphids, pesticidal activity rating” value [11] was “A”.
`COc1cc(C=O)ccc1OC(=O)N(C)SN(C)C(=O)ON=C(C)SC` [Compound 5] was tested, and the “Mexican Bean Beetle” value [6] was “A”, the “Housefly, pesticidal activity rating” value [7] was “A” and the “Southern Armyworm (egg)” value [8] was “B”. For the same compound, the “Root-Knot Nematode, galling rating” value [9] was 2, the “Southern Armyworm, pesticidal activity rating” value [10] was “A” and the “Aphids, pesticidal activity rating” value [11] was “A”.
`CSC(C)=NOC(=O)N(C)SN(C)C(=O)Oc1ccc(C(C)=O)c(C)c1` [Compound 7] was tested, and the “Mexican Bean Beetle” value [6] was “A”, the “Housefly, pesticidal activity rating” value [7] was “A” and the “Southern Armyworm (egg)” value [8] was “A”. The “Root-Knot Nematode, galling rating” value [9] was 5, the “Southern Armyworm, pesticidal activity rating” value [10] was “A” and the “Aphids, pesticidal activity rating” value [11] was “A”.
With `CSC(C)=NOC(=O)N(C)SN(C)C(=O)Oc1ccccc1C(C)=O` the “Phytotoxicity rating, Marigold” value [1] was 0, the “Phytotoxicity rating, Cucumber” value [2] was 0 and the “Phytotoxicity rating, Sorghum” value [3] was 0. For the same compound, the “Phytotoxicity rating, Snapbean” value [4] was 0 and the “Phytotoxicity rating, flax” value [5] was 0.
With `CSC(C)=NOC(=O)N(C)SN(C)C(=O)Oc1cccc(C(C)=O)c1` [drawing 26] the “Phytotoxicity rating, Marigold” value [1] was 0, the “Phytotoxicity rating, Cucumber” value [2] was 0 and the “Phytotoxicity rating, Sorghum” value [3] was 0. For the same compound, the “Phytotoxicity rating, Snapbean” value [4] was 0 and the “Phytotoxicity rating, flax” value [5] was 0.
With `CSC(C)=NOC(=O)N(C)SN(C)C(=O)Oc1cccc(C(C)=O)c1` [Compound 1, S-Methyl-N-[[[N'-[[N"-[(3-acetylphenoxy)carbonyl]-N"-methylaminosulfenyl]]-N'-methylcarbamoyloxy]]]thioacetimidate] the “Mexican Bean Beetle” value [6] was “A”, the “Housefly, pesticidal activity rating” value [7] was “A” and the “Southern Armyworm (egg)” value [8] was “A”. The “Root-Knot Nematode, galling rating” value [9] was 5, the “Southern Armyworm, pesticidal activity rating” value [10] was “A” and the “Aphids, pesticidal activity rating” value [11] was “A”.
`COc1ccc(C(=O)c2ccccc2)c(OC(=O)N(C)SN(C)C(=O)ON=C(C)SC)c1` [Compound 10] was tested, and the “Mexican Bean Beetle” value [6] was “A”, the “Housefly, pesticidal activity rating” value [7] was “A” and the “Southern Armyworm (egg)” value [8] was “A”. For the same compound, the “Root-Knot Nematode, galling rating” value [9] was 5, the “Southern Armyworm, pesticidal activity rating” value [10] was “A” and the “Aphids, pesticidal activity rating” value [11] was “A”.
